From BindingDB's records for patent US20250171447 (Merck Sharp & Dohme, 2025) come the findings set out here.

One assay deals with Adenosine receptor A2a (Homo sapiens, UniProt P29274). The assay is described as follows: A2A Binding Affinity Using SPA.
For another assay, the target named is T1, Adenosine receptor A2b (Homo sapiens, UniProt P29275).
T1 sequence (P29275 whole entry): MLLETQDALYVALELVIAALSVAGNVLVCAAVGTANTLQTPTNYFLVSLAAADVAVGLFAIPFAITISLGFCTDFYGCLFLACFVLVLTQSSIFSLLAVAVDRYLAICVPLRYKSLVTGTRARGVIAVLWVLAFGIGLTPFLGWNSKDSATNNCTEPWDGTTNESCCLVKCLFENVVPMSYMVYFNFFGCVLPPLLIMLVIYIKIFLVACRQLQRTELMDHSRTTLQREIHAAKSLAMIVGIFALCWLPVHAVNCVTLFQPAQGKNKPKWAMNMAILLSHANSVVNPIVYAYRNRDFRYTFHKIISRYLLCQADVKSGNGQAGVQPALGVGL
Kind of assay: A2B Binding Affinity Assay.

Sequence of Adenosine receptor A2a (P29274 whole entry): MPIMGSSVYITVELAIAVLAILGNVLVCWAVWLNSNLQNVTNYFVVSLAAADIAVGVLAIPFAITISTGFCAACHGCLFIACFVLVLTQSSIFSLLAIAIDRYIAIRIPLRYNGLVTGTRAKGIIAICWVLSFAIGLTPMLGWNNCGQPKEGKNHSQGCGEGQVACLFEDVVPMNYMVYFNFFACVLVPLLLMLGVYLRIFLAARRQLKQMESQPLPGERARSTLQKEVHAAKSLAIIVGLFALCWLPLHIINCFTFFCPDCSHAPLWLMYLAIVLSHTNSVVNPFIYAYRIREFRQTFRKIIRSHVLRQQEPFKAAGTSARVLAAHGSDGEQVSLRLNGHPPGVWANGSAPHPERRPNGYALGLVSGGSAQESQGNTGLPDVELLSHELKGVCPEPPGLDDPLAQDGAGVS

Regarding `COc1cc(F)cc2c1nc(N)n1nc(C3CC3(F)c3ccccc3)nc21` (centres undefined) [US20250171447, Ex-29], the IC50 (in general, the point on the concentration scale where inhibition reaches its midpoint) at Adenosine receptor A2a was determined as 3.5 nM; at Adenosine receptor A2b, 45 nM.

With `COc1cc(F)cc2c1nc(N)n1nc(C3CC3c3ccc(F)cc3)nc21` (centres undefined) [US20250171447, Ex-31], the IC50 at Adenosine receptor A2a was 44.2 nM; at Adenosine receptor A2b, 27.3 nM.

Consider `COc1cc(F)cc2c1nc(N)n1nc(C3CC3(F)c3ccccc3)nc21` (centres undefined) [US20250171447, Ex-32], for which the IC50 at Adenosine receptor A2a was determined as 377 nM; on Adenosine receptor A2b, 601 nM.

On to `COc1cc(F)cc2c1nc(N)n1nc(C3CC3(F)c3ccccc3)nc21` (centres undefined) [US20250171447, Ex-33], for which the IC50 at Adenosine receptor A2a is 472 nM; on Adenosine receptor A2b it was 62.4 nM.

Take `COc1cccc2c1nc(N)n1nc(C3CC3CO)nc21` (centres undefined) [US20250171447, Ex-35]: the IC50 was determined as 7.3 nM on Adenosine receptor A2a and 105 nM on Adenosine receptor A2b.

Regarding `COc1cccc2c1nc(N)n1nc(C3CC3CO)nc21` (centres undefined) [US20250171447, Ex-36], the IC50 is 20.5 nM at Adenosine receptor A2a and 805 nM on Adenosine receptor A2b.

On to `COc1cc(F)cc2c1nc(N)n1nc(C3CC3(F)c3ccccc3)nc21` (centres undefined) [US20250171447, Ex-39], for which the IC50 at Adenosine receptor A2a turned out to be 0.6 nM; on Adenosine receptor A2b, 71.9 nM.

`COc1cc(F)cc2c1nc(N)n1nc([C@H]3C[C@H](c4ccc(C(C)(C)O)cn4)C3)nc21` [US20250171447, Ex-44] showed an IC50 at Adenosine receptor A2a of 2.4 nM.

Consider `COc1cc(F)cc2c1nc(N)n1nc([C@H]3C[C@@H](c4ccc(C(C)(C)O)cn4)C3)nc21` [US20250171447, Ex-45], for which the IC50 on Adenosine receptor A2a turned out to be 1.6 nM; at Adenosine receptor A2b, 6.2 nM.

In turn, `COc1cccc2c1nc(N)n1nc([C@H]3C[C@H](c4ccc(C(C)(C)O)nc4)C3)nc21` [US20250171447, Ex-53] yielded an IC50 at Adenosine receptor A2a of 8.8 nM.

As for `COc1cccc2c1nc(N)n1nc([C@H]3C[C@@H](c4ccc(C(C)(C)O)nc4)C3)nc21` [US20250171447, Ex-54], the IC50 turned out to be 1.1 nM at Adenosine receptor A2a and 6.9 nM at Adenosine receptor A2b.

On to `COc1ccc2c(c1)nc(N)n1nc([C@H]3C[C@@H](c4ccc(CC(C)(C)O)cn4)C3)nc21` [US20250171447, Ex-55], for which the IC50 at Adenosine receptor A2a was 15.5 nM.

Regarding `COc1ccc2c(c1)nc(N)n1nc([C@H]3C[C@H](c4ccc(CC(C)(C)O)cn4)C3)nc21` [US20250171447, Ex-56], the IC50 at Adenosine receptor A2a was determined as 17.8 nM.

`COc1ccc2c(c1)nc(N)n1nc([C@H]3C[C@@H](c4cnc(C(C)(C)O)cn4)C3)nc21` [US20250171447, Ex-57]: the IC50 on Adenosine receptor A2a turned out to be 47.4 nM.

The molecule `COc1ccc2c(c1)nc(N)n1nc([C@H]3C[C@H](c4cnc(C(C)(C)O)cn4)C3)nc21` [US20250171447, Ex-58] came in with an IC50 at Adenosine receptor A2a of 136 nM.

Molecule `COc1ccc2c(c1)nc(N)n1nc([C@H]3C[C@@H](c4ccc(C(C)(C)O)cn4)C3)nc21` [US20250171447, Ex-59] had an IC50 at Adenosine receptor A2a of 5.7 nM.

`COc1ccc2c(c1)nc(N)n1nc([C@H]3C[C@H](c4ccc(C(C)(C)O)cn4)C3)nc21` [US20250171447, Ex-60] gave an IC50 at Adenosine receptor A2a of 7.9 nM.

`COc1ccc2c(c1)nc(N)n1nc([C@H]3C[C@H](c4ncc(C(C)(C)O)cn4)C3)nc21` [US20250171447, Ex-61]: the IC50 on Adenosine receptor A2a was determined as 42.6 nM.

Molecule `COc1ccc2c(c1)nc(N)n1nc([C@H]3C[C@@H](c4ncc(C(C)(C)O)cn4)C3)nc21` [US20250171447, Ex-62] registered an IC50 on Adenosine receptor A2a of 107 nM.

Take `CC(C)(O)c1ccc([C@H]2C[C@@H](c3nc4c5cc(F)cc(F)c5nc(N)n4n3)C2)nc1` [US20250171447, Ex-63]: the figures for the IC50 at Adenosine receptor A2a and at Adenosine receptor A2b were 7 nM and 0.4 nM, respectively.

On to `CC(C)(O)c1ccc([C@H]2C[C@H](c3nc4c5cc(F)cc(F)c5nc(N)n4n3)C2)nc1` [US20250171447, Ex-64], for which the values for the IC50 on Adenosine receptor A2a and on Adenosine receptor A2b were 16 nM and 1.7 nM, respectively.

As for `COc1cccc2c1nc(N)n1nc([C@H]3C[C@@H](c4ccc(CC(C)(C)O)cn4)C3)nc21` [US20250171447, Ex-65], at Adenosine receptor A2a, the IC50 was 2.1 nM.

`COc1cccc2c1nc(N)n1nc([C@H]3C[C@H](c4ccc(CC(C)(C)O)cn4)C3)nc21` [US20250171447, Ex-66]: on Adenosine receptor A2a, the IC50 was found to be 2 nM.

The molecule `COc1cccc2c1nc(N)n1nc([C@H]3C[C@H](c4ccc(C(C)(C)N)nc4)C3)nc21` [US20250171447, Ex-84] displayed an IC50 at Adenosine receptor A2a of 8.2 nM.

`COc1cccc2c1nc(N)n1nc(C3CC(c4ncc(C(C)(C)N)cc4Cl)C3)nc21` (centres undefined) [US20250171447, Ex-87]: the values for the IC50 at Adenosine receptor A2a and at Adenosine receptor A2b were 0.8 nM and 2.7 nM, respectively.

On to `COc1cccc2c1nc(N)n1nc([C@H]3C[C@H](c4ccc(C5(O)CC(F)(F)C5)cn4)C3)nc21` [US20250171447, Ex-103], for which the IC50 on Adenosine receptor A2a amounted to 1.1 nM.

For the molecule `COc1cccc2c1nc(N)n1nc(C3CC(c4ccc(C5(C#N)CNC5)nc4)C3)nc21` (centres undefined) [US20250171447, Ex-116], the IC50 on Adenosine receptor A2a was 3.1 nM.

For `Cc1nc(C(C)(C)N)cnc1[C@H]1C[C@@H](c2nc3c4cccc(Cl)c4nc(N)n3n2)C1` [US20250171447, Ex-128], at Adenosine receptor A2a, the concentration for half-maximal inhibition (IC50) turned out to be 52 nM.

As for `Cc1nc(C(C)(C)N)cnc1[C@H]1C[C@H](c2nc3c4cc(F)cc(F)c4nc(N)n3n2)C1` [US20250171447, Ex-129], the IC50 on Adenosine receptor A2a is 4.5 nM.

`Cc1nc(C(C)(C)N)cnc1[C@H]1C[C@@H](c2nc3c4cc(F)cc(F)c4nc(N)n3n2)C1` [US20250171447, Ex-130]: the concentration for half-maximal inhibition (IC50) at Adenosine receptor A2a worked out at 89.2 nM.

`COc1cc2nc(N)n3nc([C@H]4C[C@H](c5ncc(C(C)(C)N)nc5C)C4)nc3c2cc1F` [US20250171447, Ex-131] returned an IC50 on Adenosine receptor A2a of 2.5 nM.

As to `COc1cc2nc(N)n3nc([C@H]4C[C@@H](c5ncc(C(C)(C)N)nc5C)C4)nc3c2cc1F` [US20250171447, Ex-132], at Adenosine receptor A2a, the IC50 came out at 37.2 nM.
